Patent publication US7632946B2, “Naphthyridine-based antibacterial compositions” (Abbott Laboratories, priority 2004, dated 2009)

System: bacterial protein synthesis (S30 extract from quinolone-succeptable Streptococcus pneumoniae ATCC 46919)
Assay: Cell-free translation assay, firefly luciferase reporter, S30 Streptococcus pneumoniae extract
Format: biochemical
Settings: luciferase mRNA, read-out: IC50, concentration causing 50% inhibition of bacterial protein synthesis
Description: Bacterial protein synthesis inhibitory activity of representative compounds of this invention having formula (I) and the commercially-available antibacterials in TABLE 2 was determined by translation assays using the firefly luciferase reporter system described by Murray et al., (2001), “Staphylococcus aureus Cell Extract Transcription-Translation Assay: Firefly Luciferase Reporter System for Evaluating Protein Translation Inhibitors,” Antimicrob. Agents Chemother. 45(6): 1900-1904, but replacing the Staphylococcus aureus S30 extract described therein with S30 Streptococcus pneumoniae extract from quinolone-succeptable Streptococcus pneumoniae ATCC 46919, and replacing plasmid coding for the luciferase gene with mRNA (encoding produced by in vitro transcription from the plasmid pAS10rbs3) which encoded the luciferase gene with an upstream Streptococcus pneumoniae promoter and Shine-Dalgarno site.

`CC(=O)NC[C@H]1CN(c2ccc(N3CCOCC3)c(F)c2)C(=O)O1` [Linezolid] was tested. Which IC50 did it give?
Its IC50 is roughly 3000 nM.
